Molecules are shown by their SMILES. ≈ marks a conversion by molar mass, not a printed value. Calls of active or inactive are those of the source. The calls are words filed in the database; no cut-off is given here.

Series [1] has as its target Metabotropic glutamate receptor 5 (Homo sapiens, UniProt P41594). The experiment in a line: Negative allosteric modulation of human recombinant mGluR5 expressed in HEK293 cells assessed as L-glutamate-induced intracellular calcium mobilization incubated for 20 mins before L-glutamate addition. It counts as functional, cell-based.
The next series relates to Mus musculus. The experiment in a line: Antidepressant activity in CD1(ICR) mouse assessed as decrease in immobility time at 60 mg/kg, po after 1 hr by tail suspension test. It counts as functional, organism-based.
Series [2] can be described thus: Aqueous solubility of the compound at pH 7.4. It counts as physicochemical.
The nature of series [3]: Aqueous solubility of the compound at pH 1.2. It counts as physicochemical.
Series [4] can be described thus: Metabolic stability in human liver microsomes assessed as compound remaining at 1 uM after 30 mins in presence of NADPH by LC/MS/MS analysis. The class given is ADME, Microsome. The settings on record: read-out: Stability. (Microsomes from liver hold many membrane-bound enzymes, among them those of drug oxidation.)
A short description of series [5]: Metabolic stability in rat liver microsomes assessed as compound remaining at 1 uM after 30 mins in presence of NADPH by LC/MS/MS analysis. It counts as ADME, Microsome. Conditions: read-out: Stability.
The target in the next series is T1, Cytochrome P450 1A2 (Homo sapiens, UniProt P05177).
T1 sequence (P05177 whole entry): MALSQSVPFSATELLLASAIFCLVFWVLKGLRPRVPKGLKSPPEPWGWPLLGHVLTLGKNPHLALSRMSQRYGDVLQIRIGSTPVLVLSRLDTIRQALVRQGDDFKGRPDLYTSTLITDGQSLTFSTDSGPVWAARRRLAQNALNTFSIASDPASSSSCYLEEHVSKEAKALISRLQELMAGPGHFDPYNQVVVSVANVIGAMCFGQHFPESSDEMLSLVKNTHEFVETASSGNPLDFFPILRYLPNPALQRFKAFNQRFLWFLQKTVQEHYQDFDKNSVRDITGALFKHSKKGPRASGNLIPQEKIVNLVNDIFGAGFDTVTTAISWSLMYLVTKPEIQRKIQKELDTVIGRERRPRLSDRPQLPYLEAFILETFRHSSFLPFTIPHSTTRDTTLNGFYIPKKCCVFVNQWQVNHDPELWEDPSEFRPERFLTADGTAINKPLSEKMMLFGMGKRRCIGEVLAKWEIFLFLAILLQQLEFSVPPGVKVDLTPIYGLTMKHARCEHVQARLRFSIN
The experiment in a line: Inhibition of CYP1A2 in human liver microsomes using phenacetin as substrate after 10 mins in presence of NADPH by LC/MS/MS analysis. The class given is ADME.

The target in the next series is T2, Cytochrome P450 2A6 (Homo sapiens, UniProt P11509).
T2 sequence (P11509 whole entry): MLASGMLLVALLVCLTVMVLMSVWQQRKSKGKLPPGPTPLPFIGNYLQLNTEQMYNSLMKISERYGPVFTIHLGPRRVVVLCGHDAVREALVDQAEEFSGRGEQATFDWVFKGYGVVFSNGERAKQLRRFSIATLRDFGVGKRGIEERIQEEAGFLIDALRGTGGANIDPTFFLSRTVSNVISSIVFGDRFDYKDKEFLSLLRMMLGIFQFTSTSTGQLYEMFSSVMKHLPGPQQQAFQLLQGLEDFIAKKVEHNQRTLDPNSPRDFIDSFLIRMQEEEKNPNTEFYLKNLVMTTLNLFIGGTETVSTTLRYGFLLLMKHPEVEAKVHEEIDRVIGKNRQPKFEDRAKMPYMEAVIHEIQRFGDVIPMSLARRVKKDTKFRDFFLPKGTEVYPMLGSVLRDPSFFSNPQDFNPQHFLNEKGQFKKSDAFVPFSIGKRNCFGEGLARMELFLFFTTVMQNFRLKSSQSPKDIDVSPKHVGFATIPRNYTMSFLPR
The experiment in a line: Inhibition of CYP2A6 in human liver microsomes using coumarin as substrate after 10 mins in presence of NADPH by LC/MS/MS analysis. The class given is ADME.

For another series, the target named is T3, Cytochrome P450 2C8 (Homo sapiens, UniProt P10632).
T3 sequence (P10632 whole entry): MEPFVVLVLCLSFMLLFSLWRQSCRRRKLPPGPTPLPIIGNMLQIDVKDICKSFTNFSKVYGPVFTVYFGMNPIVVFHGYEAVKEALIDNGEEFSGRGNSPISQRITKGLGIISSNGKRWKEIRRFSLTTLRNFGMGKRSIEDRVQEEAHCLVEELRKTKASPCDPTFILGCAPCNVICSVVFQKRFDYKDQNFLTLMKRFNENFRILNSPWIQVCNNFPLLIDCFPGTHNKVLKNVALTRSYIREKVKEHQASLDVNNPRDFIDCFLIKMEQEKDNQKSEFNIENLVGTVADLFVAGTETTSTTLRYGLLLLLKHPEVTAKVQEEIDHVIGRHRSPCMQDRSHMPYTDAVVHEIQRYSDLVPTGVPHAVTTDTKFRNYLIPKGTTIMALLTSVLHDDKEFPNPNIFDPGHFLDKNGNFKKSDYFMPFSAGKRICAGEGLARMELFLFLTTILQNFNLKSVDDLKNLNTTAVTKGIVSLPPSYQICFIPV
Kind of series: Inhibition of CYP2C8 in human liver microsomes using amodiaquin as substrate after 10 mins in presence of NADPH by LC/MS/MS analysis. It counts as ADME.

The target in the next series is Cytochrome P450 2C9 (Homo sapiens, UniProt P11712). Kind of series: Inhibition of CYP2C9 in human liver microsomes using diclofenac as substrate after 10 mins in presence of NADPH by LC/MS/MS analysis. It counts as ADME.
For the next series, the target named is Cytochrome P450 2C19 (Homo sapiens, UniProt P33261). Kind of series: Inhibition of CYP2C19 in human liver microsomes using (S)-mephenytoin as substrate after 10 mins in presence of NADPH by LC/MS/MS analysis. The class given is ADME.
The next series concerns the target Cytochrome P450 2D6 (Homo sapiens, UniProt P10635). Kind of series: Inhibition of CYP2D6 in human liver microsomes using bufuralol as substrate after 10 mins in presence of NADPH by LC/MS/MS analysis. It counts as ADME.
In the next series the target is Cytochrome P450 3A4 (Homo sapiens, UniProt P08684). Kind of series: Inhibition of CYP3A4 in human liver microsomes using midazolam as substrate after 10 mins in presence of NADPH by LC/MS/MS analysis. The class given is ADME.
Chain of Cytochrome P450 3A4 (P08684 whole entry): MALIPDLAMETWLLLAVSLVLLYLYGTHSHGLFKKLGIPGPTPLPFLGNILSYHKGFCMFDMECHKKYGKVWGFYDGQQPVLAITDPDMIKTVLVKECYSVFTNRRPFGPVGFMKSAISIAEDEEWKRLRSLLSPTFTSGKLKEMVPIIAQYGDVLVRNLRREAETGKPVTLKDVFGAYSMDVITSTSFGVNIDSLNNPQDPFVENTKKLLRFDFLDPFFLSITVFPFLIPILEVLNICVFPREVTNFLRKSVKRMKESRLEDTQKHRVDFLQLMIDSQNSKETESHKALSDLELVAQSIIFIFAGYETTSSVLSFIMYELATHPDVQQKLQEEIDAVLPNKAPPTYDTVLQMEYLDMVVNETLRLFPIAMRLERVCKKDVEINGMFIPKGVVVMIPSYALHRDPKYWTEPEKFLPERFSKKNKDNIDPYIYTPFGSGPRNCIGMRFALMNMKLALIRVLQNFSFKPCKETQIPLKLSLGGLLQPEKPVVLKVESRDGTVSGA

Chain of Metabotropic glutamate receptor 5 (P41594 whole entry): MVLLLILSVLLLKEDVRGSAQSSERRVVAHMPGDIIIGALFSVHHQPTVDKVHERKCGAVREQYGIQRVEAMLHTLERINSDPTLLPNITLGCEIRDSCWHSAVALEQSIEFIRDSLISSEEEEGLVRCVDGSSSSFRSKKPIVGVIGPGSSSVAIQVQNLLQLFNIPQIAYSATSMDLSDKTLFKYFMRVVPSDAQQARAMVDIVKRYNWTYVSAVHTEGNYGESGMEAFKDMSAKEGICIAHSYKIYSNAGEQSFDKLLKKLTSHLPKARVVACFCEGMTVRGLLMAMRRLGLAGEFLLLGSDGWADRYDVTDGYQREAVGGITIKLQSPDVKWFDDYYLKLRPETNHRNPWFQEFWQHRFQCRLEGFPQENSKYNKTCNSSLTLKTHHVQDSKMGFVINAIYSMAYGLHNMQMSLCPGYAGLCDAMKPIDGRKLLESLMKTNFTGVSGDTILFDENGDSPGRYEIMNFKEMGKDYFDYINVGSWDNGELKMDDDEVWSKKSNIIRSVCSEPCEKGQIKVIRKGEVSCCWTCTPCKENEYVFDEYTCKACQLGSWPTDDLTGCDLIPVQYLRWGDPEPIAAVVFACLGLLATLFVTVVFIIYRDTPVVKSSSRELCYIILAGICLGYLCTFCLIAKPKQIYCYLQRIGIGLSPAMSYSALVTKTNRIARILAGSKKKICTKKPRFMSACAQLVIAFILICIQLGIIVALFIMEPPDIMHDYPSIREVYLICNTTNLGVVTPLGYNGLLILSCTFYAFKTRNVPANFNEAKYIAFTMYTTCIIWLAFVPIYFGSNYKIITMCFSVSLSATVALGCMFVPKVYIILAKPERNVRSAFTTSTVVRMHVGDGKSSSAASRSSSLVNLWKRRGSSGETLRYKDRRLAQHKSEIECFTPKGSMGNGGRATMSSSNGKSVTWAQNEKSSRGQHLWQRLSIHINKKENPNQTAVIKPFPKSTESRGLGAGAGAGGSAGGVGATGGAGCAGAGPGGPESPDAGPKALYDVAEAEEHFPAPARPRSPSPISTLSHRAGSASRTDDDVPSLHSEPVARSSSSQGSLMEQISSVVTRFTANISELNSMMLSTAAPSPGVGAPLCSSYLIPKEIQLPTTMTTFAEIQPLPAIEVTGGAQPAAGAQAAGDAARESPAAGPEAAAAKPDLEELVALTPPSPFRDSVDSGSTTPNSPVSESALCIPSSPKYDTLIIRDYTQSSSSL
Chain of Cytochrome P450 2C9 (P11712 whole entry): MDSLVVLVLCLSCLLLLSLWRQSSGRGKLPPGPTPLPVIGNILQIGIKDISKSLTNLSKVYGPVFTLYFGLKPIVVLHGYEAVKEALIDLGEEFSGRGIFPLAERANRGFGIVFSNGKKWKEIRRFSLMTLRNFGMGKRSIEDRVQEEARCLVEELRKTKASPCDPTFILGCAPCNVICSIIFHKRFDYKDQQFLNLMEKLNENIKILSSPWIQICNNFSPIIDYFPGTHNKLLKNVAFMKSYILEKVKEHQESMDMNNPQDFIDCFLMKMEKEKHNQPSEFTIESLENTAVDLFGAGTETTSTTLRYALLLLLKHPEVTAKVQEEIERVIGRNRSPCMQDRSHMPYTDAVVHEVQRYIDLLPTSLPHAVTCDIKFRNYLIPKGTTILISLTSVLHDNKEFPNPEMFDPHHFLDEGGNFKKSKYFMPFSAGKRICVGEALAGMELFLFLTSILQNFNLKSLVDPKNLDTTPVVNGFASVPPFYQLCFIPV
Chain of Cytochrome P450 2C19 (P33261 whole entry): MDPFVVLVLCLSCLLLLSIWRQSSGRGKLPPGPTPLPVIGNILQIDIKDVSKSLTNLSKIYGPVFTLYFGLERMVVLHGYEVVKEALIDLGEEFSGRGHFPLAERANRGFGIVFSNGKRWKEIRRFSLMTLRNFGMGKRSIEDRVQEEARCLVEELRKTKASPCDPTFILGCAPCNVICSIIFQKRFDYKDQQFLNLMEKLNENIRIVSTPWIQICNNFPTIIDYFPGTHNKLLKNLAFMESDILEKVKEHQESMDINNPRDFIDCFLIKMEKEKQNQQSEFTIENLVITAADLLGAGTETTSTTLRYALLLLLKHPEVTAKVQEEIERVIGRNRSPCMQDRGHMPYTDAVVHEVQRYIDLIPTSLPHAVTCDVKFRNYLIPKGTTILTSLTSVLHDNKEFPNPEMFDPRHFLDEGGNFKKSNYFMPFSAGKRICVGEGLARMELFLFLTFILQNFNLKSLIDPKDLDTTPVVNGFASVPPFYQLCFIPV
Chain of Cytochrome P450 2D6 (P10635 whole entry): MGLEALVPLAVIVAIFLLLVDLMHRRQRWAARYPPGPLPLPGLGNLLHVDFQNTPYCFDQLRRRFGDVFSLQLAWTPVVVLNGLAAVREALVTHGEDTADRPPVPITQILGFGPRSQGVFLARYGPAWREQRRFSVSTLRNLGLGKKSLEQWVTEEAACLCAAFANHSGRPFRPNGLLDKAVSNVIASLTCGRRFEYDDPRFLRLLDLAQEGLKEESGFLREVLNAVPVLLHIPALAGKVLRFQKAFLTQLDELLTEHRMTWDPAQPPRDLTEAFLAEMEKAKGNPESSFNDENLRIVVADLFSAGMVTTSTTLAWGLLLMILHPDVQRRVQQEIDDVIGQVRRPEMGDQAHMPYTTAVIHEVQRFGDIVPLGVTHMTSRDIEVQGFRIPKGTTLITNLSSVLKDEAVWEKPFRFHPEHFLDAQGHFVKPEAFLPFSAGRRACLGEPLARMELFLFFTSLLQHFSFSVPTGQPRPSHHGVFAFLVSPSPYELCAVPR

Regarding `O=C(c1cccc(C(F)(F)F)c1)N1CCn2nc(-c3ccc(F)cn3)cc2C1`, the IC50 in [1] was 383 nM.
With `O=C(c1ccccc1)N1CCn2nc(-c3ccc(F)cn3)cc2C1`, in series [1], the half-maximal inhibitory concentration (IC50) is 164 nM.
Turning to `O=C(c1ccccc1)N1CCn2nc(-c3ccc(Cl)cn3)cc2C1`, the IC50 in [1] turned out to be 201 nM.
Take `O=C(c1cccc(F)c1)N1CCn2nc(-c3ccc(F)cn3)cc2C1`: the IC50 in [1] turned out to be 257 nM.
Consider `O=C(c1cccc(Cl)c1)N1CCn2nc(-c3ccc(F)cn3)cc2C1`, for which the IC50 in [1] came to 150 nM.
Same read-out and setting: then `CC(C)(C)c1cc2n(n1)CCN(C(=O)c1ccc3ccccc3c1)C2`, with 477 nM; and `O=C(c1ccccc1)N1CCn2nc(-c3cccnc3)cc2C1`, with more than 10000 nM; and `O=C(c1ccccc1Cl)N1CCn2nc(-c3ccccn3)cc2C1`, with 2480 nM.
Take `Cc1cccnc1-c1cc2n(n1)CCN(C(=O)c1ccccc1)C2`: in [1], the IC50 is more than 10000 nM.
As for `Cc1cccc(-c2cc3n(n2)CCN(C(=O)c2ccccc2)C3)n1`, in series [1], the half-inhibitory concentration (IC50) was 568 nM.
Same read-out and setting: then `O=C(c1ccc(Cl)cc1)N1CCn2nc(-c3ccccn3)cc2C1`, with 9470 nM; and `Cc1cc(F)cc(C(=O)N2CCn3nc(-c4ccc(F)cn4)cc3C2)c1`, with 197 nM.
The same measure, in the same setting: in the case of `O=C(c1ccccc1)N1CCn2nc(-c3ccncc3)cc2C1` it was 1290 nM.
Take `CN(C)CCCN1c2ccccc2CCc2ccccc21`: the outcome with Mus musculus was Active.
Regarding `COc1cccc(C(=O)N2CCn3nc(-c4ccc(F)cn4)cc3C2)c1`, the IC50 in series [1] was 482 nM.
As to `N#Cc1cccc(C(=O)N2CCn3nc(-c4ccc(F)cn4)cc3C2)c1`, the half-inhibitory concentration (IC50) in series [1] is more than 10000 nM.
Same read-out and setting: then `Cc1ccc(-c2cc3n(n2)CCN(C(=O)c2ccccc2)C3)nc1`, with 244 nM.
For `Cc1cccc(C(=O)N2CCn3nc(-c4ccc(F)cn4)cc3C2)c1`, the half-inhibitory concentration (IC50) in series [1] worked out at 150 nM.
In the case of `O=C(c1ccccc1)N1CCn2nc(-c3ccccc3)cc2C1`, the IC50 in [1] was determined as 127 nM. For the same compound, the solubility in series [2] was 2 µg/mL (≈ 6.59 µM); in series [3] it was 4 µg/mL (≈ 13.2 µM).
Take `O=C(c1cccc(Cl)c1)N1CCn2nc(-c3ccccn3)cc2C1`: the 50% inhibitory concentration (IC50) in series [1] worked out at 176 nM.
Consider `Cc1ccnc(-c2cc3n(n2)CCN(C(=O)c2ccccc2)C3)c1`, for which the IC50 in [1] came to 451 nM.
As for `O=C(c1cc(Cl)cc(Cl)c1)N1CCn2nc(-c3ccccn3)cc2C1`, the IC50 in [1] was 270 nM.
Regarding `O=C(c1ccccc1)N1CCn2nc(-c3ccccn3)cc2C1`, the half-inhibitory concentration (IC50) in [1] was 235 nM; on Cytochrome P450 1A2, more than 50000 nM; at Cytochrome P450 2A6 it was more than 50000 nM; on Cytochrome P450 2C8, more than 50000 nM; at Cytochrome P450 2C9, more than 50000 nM; at Cytochrome P450 2C19, more than 50000 nM. Besides, the 50% inhibitory concentration (IC50) on Cytochrome P450 2D6 and at Cytochrome P450 3A4 was more than 50000 nM each time. Further, the solubility in [2] and in series [3] was more than 100 µg/mL throughout. In addition, the results for the remaining at 0.5 h, 1 µM in [4] and in series [5] were 92% and 95%, respectively.

As a reminder, the IC50 is the concentration at which inhibition is half-maximal. For orientation: solubility means how much of the substance goes into solution per volume.
